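Interpolation was linear, between the two tested concentrations surrounding the appropriate level; five concentrations were tested over 48 hours in 96-well plates. Abbreviation: GI50, concentration required for 50% inhibition of growth.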 Calls of active or inactive are those of the source. No stated cut-off is given here; in the data, active = GI50 up to about 1.1 µM and inactive = higher.
How the values were obtained:
Experiment in all cases: NCI anticancer screen, dose series, 48 h
DLD-1 = test system: DLD-1
DMS-114 = test system: DMS-114
DMS-273 = test system: DMS-273
KM-20L2 = test system: KM-20L2
M19-MEL = test system: M19-MEL
RXF 631 = test system: RXF 631
XF498 = test system: XF498
SNB-78 = test system: SNB-78
HOP-18 = test system: HOP-18

Row | Compound | GI50 (DLD-1) | GI50 (DMS-114) | GI50 (DMS-273) | GI50 (KM-20L2) | GI50 (M19-MEL) | GI50 (RXF 631) | GI50 (XF498) | GI50 (SNB-78) | GI50 (HOP-18)
1 | COc1ccc(OC)c2c(=S)c3ccccc3[nH]c12 | > 100 µM (inactive) | 32 µM (inactive) | > 82.8 µM (inactive) | > 100 µM (inactive) | > 100 µM (inactive) | 41.5 µM (inactive) | > 100 µM (inactive) | – | –
2 | Cc1nc(N)nc(N)c1CCCc1ccccc1 | 12.1 µM (inactive) | 4.48 µM (inactive) | – | 7.31 µM (inactive) | 9.95 µM (inactive) | – | 35.7 µM (inactive) | 32.1 µM (inactive) | –
3 | Cc1ccc(NC(=O)CCC(=O)C(C#N)c2ccccc2)cc1C (stereo not given) | > 100 µM (inactive) | > 100 µM (inactive) | > 100 µM (inactive) | > 100 µM (inactive) | – | > 100 µM (inactive) | > 100 µM (inactive) | > 100 µM (inactive) | > 100 µM (inactive)
4 | Sc1nnc(COc2ccc(Cl)cc2Cl)[nH]1 | > 100 µM (inactive) | > 100 µM (inactive) | > 100 µM (inactive) | > 100 µM (inactive) | > 100 µM (inactive) | – | > 100 µM (inactive) | > 100 µM (inactive) | –
5 | C#CC1(O)CC(c2ccccc2)N(C)C(c2ccccc2)C1 (stereo not given) | – | > 100 µM (inactive) | > 100 µM (inactive) | > 100 µM (inactive) | > 100 µM (inactive) | > 100 µM (inactive) | – | > 100 µM (inactive) | –
6 | Cc1cc2c(cc1C)[n+]([O-])c(C(=O)/C=C/c1ccccc1Cl)c(C)[n+]2[O-] | 19.5 µM (inactive) | 21.8 µM (inactive) | 29.4 µM (inactive) | 35.2 µM (inactive) | 36 µM (inactive) | 24.7 µM (inactive) | 18.5 µM (inactive) | 33.7 µM (inactive) | 29.3 µM (inactive)
7 | O=C(CCN1CCN(c2cccc(Cl)c2)CC1)N1CCc2c([nH]c3ccccc23)C1c1cccnc1 (stereo not given) | 5.32 µM (inactive) | 6.65 µM (inactive) | 8.28 µM (inactive) | 5.52 µM (inactive) | 13.3 µM (inactive) | 2.59 µM (inactive) | 3.27 µM (inactive) | 3.72 µM (inactive) | 12.8 µM (inactive)
8 | Nc1c(Cl)ncnc1NCCCNc1ncnc(Cl)c1N | > 100 µM (inactive) | > 100 µM (inactive) | > 100 µM (inactive) | > 100 µM (inactive) | > 100 µM (inactive) | – | > 100 µM (inactive) | > 100 µM (inactive) | > 100 µM (inactive)
9 | O=C(N/C(=C\c1ccc([N+](=O)[O-])cc1)c1nc2ccccc2[nH]1)c1ccccc1 | > 100 µM (inactive) | > 100 µM (inactive) | – | > 100 µM (inactive) | > 100 µM (inactive) | 43.7 µM (inactive) | – | > 100 µM (inactive) | > 100 µM (inactive)
10 | O=S1(=O)OCCOS(=O)(=O)C1Br | > 100 µM (inactive) | > 100 µM (inactive) | > 100 µM (inactive) | – | > 100 µM (inactive) | > 100 µM (inactive) | – | > 100 µM (inactive) | –
11 | COc1ccc(OC)c(/C=C(/C#N)c2ccccc2)c1 | 28.7 µM (inactive) | – | 4.22 µM (inactive) | 16.6 µM (inactive) | 22.2 µM (inactive) | – | – | – | > 100 µM (inactive)
12 | CC(OC1CC(=O)CC2C(=O)C=CC(=O)C12)c1ccccc1 (stereo not given) | 12.9 µM (inactive) | 8.05 µM (inactive) | 19.1 µM (inactive) | 17.3 µM (inactive) | 16.1 µM (inactive) | – | 15.8 µM (inactive) | 19.5 µM (inactive) | 18.2 µM (inactive)
13 | N#CCCN(CCC#N)C(=O)c1cccc(C(=O)N(CCC#N)CCC#N)c1 | > 88.9 µM (inactive) | > 100 µM (inactive) | > 100 µM (inactive) | > 42.8 µM (inactive) | > 100 µM (inactive) | – | > 100 µM (inactive) | > 100 µM (inactive) | –
14 | O=C1NC(=O)C2C(=O)NC(=O)C1C2Cc1ccco1 (stereo not given) | > 100 µM (inactive) | > 100 µM (inactive) | > 100 µM (inactive) | > 100 µM (inactive) | > 100 µM (inactive) | – | > 100 µM (inactive) | > 100 µM (inactive) | –
15 | NC(=S)Nc1nnc(-c2ccc(-c3nnc(NC(N)=S)o3)cc2)o1 | > 100 µM (inactive) | > 100 µM (inactive) | > 100 µM (inactive) | > 100 µM (inactive) | > 100 µM (inactive) | – | – | > 100 µM (inactive) | > 100 µM (inactive)
16 | O=C1CC2CCCCC2=C1O (stereo not given) | > 100 µM (inactive) | > 100 µM (inactive) | > 100 µM (inactive) | – | > 100 µM (inactive) | > 100 µM (inactive) | > 100 µM (inactive) | > 100 µM (inactive) | –
17 | C#CC[C@]12CC(=O)CC[C@H]1CC1(C2)OCCO1 | > 100 µM (inactive) | > 100 µM (inactive) | > 100 µM (inactive) | > 100 µM (inactive) | > 100 µM (inactive) | > 100 µM (inactive) | – | > 100 µM (inactive) | > 100 µM (inactive)
18 | Cc1c2cc[n+](C)cc2c(C)c2c1sc1ccccc12 | 3.05 µM (inactive) | 0.395 µM (active) | 0.853 µM (active) | 2.04 µM (inactive) | 1.1 µM (active) | 0.194 µM (active) | 0.564 µM (active) | 0.855 µM (active) | 9.14 µM (inactive)
19 | COC(=O)CCC(=O)Nc1ccc(Cl)cc1C | > 100 µM (inactive) | 0.859 µM (active) | > 100 µM (inactive) | > 48.4 µM (inactive) | > 100 µM (inactive) | > 29.9 µM (inactive) | 13.5 µM (inactive) | 98.4 µM (inactive) | > 100 µM (inactive)
20 | CN1C(=O)CCC1(O)C1C=CC=CC1 (stereo not given) | > 100 µM (inactive) | > 100 µM (inactive) | > 100 µM (inactive) | > 100 µM (inactive) | > 100 µM (inactive) | > 100 µM (inactive) | > 100 µM (inactive) | > 100 µM (inactive) | –
21 | Cc1ccc(S(=O)(=O)OC2CSSCC2OS(=O)(=O)c2ccc(C)cc2)cc1 (stereo not given) | 11 µM (inactive) | 11.9 µM (inactive) | 10.1 µM (inactive) | 14 µM (inactive) | 13.4 µM (inactive) | 13.6 µM (inactive) | – | 20 µM (inactive) | 17.4 µM (inactive)
22 | c1ccc2c(c1)[nH]c1c2nc2ncccn21 | > 100 µM (inactive) | > 100 µM (inactive) | > 100 µM (inactive) | > 100 µM (inactive) | > 100 µM (inactive) | > 100 µM (inactive) | > 100 µM (inactive) | > 100 µM (inactive) | –
23 | COc1cc2c(cc1OC)C(N(C)C)C(c1ccccc1)=C2Cl (stereo not given) | 15.1 µM (inactive) | – | 16.4 µM (inactive) | 25 µM (inactive) | 18.5 µM (inactive) | 15.7 µM (inactive) | – | – | 28.5 µM (inactive)
24 | COC(=O)CCC1(NS(=O)(=O)c2ccc(C)cc2)CCC(C(C)(C)C)CC1 (stereo not given) | 17 µM (inactive) | 4.58 µM (inactive) | 12.9 µM (inactive) | – | 11.4 µM (inactive) | 15.9 µM (inactive) | 14.8 µM (inactive) | 21.3 µM (inactive) | –
25 | CC(C)C1CC(O)O[C@@H]([C@@H](C)[C@H]2CC(=O)[C@@H]3[C@@H]4[C@@H](O)[C@H](O)[C@H]5[C@@H](O)[C@H](O)CC[C@]5(C)[C@H]4CC[C@]23C)C1 (stereo not given in full) | > 100 µM (inactive) | – | 39.8 µM (inactive) | > 100 µM (inactive) | 37.1 µM (inactive) | – | 18.9 µM (inactive) | 38.9 µM (inactive) | –
26 | COc1cc(CNc2ccc(C(C)C)cc2)cc(OC)c1OC | 24 µM (inactive) | 24.9 µM (inactive) | – | 16.8 µM (inactive) | 17.1 µM (inactive) | – | 32.3 µM (inactive) | 35.1 µM (inactive) | 34.1 µM (inactive)

Source: ChEMBL document CHEMBL1201862, “PubChem BioAssay data set” (2004)
